Assay results reported in US11207312B2, “Metallo-beta-lactamase inhibitors and methods of use thereof” (priority 2017, dated 2021).
pIC50: −log10 of the molar value.

Experiments:
NDM-1 = NDM-1 (Klebsiella pneumoniae, UniProt C7C422); test: biochemical; type: biochemical; details: CCF2-FA fluorescence assay, 2 hours at 25° C.
Method: (§1) The Class B enzyme activities were measured in the presence of the test inhibitor in a fluorescence assay against a commercially available substrate consisting of a cephalosporin core linking 7-hydroxycoumarin to fluorescein (CCF2-FA). The enzyme (NDM-1, IMP-1 or VIM-1) and the substrate were diluted in 100 mM KH2PO4 buffer (pH 7) containing 0.005% Tween-20 and 10 μM ZnSO4. In the assay, the final concentration of enzyme was 1 pM, 2 pM and 30 pM for NDM-1, IMP-1 and VIM-1, respectively, and the final concentration of CCF2-FA was 1.25 μM. The test inhibitor was dissolved in dimethylsulfoxide and diluted 1:50 in the assay, resulting in a final concentration range of 20 μM to 0.00063 μM. In a 384-well microplate, the test inhibitor was incubated with the metallo-β-lactamase enzyme and the substrate for 2 hours at 25° C. Fluorescence at 460 nm following excitation at 405 nm was measured. The IC50 value was determined from semi-logarithmic plots of enzyme inhibition versus inhibitor concentration, with a curve generated using a 4-parameter fit.

[1] = system: Escherichia coli expressing NDM-1 (CLB30016); type: cell-based; details: with imipenem 1 μg/ml; 95% inhibition of bacterial growth
Method: (§2) The bacterial strains tested included the clinical strains Escherichia coil expressing NDM-1 (CLB30005, CLB30016), Serratia marcescens expressing IMP-1 (CL5741), and Klebsiella pneumoniae expressing VIM-1 (H-LMA599644). Inhibitor activity was measured in the presence and absence of imipenem in a 384-well microplate.
(§3) The clinical strains CLB30016, CL5741 and IHMA599644 were grown on trypticase soy agar containing 5% sheep's blood. The bacteria on agar plates were incubated at 35° C. with humidity overnight. The following day, individual colonies from each clinical strain were picked and resuspended in 5 ml saline to attain an OD600 of […], for CLB30016, C15741 and IHMA599644, respectively. These were further diluted 1:100 into 1.1× CAMHB and used to inoculate the test wells as described below.
(§4) Imipenem in 10 mM 3-(N-morpholino)propanesulfonic acid (MOPS, pH 7) was stored in single use aliquots at −80° C. […] On the day of the assay, 4 μl of antibiotic was added to 45 μl of bacteria followed by 1 μl of test compound and mixed by pipetting and with an orbital shaker. The concentration of antibiotic used in the assay was 1 μg/ml. Microplates were covered and incubated at 35° C. for 22 hours to 24 hours. At the end of the incubation, absorbance was determined using a spectrophotometer. The synergistic concentration of MBLI was determined by identifying the lowest concentration of test compound in the presence of a given concentration of antibiotic that was required to inhibit 95% of the growth of the bacteria. The results for Examples 1-209 are reported in Table 1, expressed as the concentration of compound that potentiated the action of antibiotic (imipenem) affecting 95% inhibition of bacterial growth (MITC95).

[2] = system: Klebsiella pneumoniae expressing VIM-1 (IHMA599644); type: cell-based; details: with imipenem 1 μg/ml; 95% inhibition of bacterial growth
Method: as §2, §3, §4

[3] = system: Serratia marcescens expressing IMP-1 (CL5741); type: cell-based; details: with imipenem 1 μg/ml; 95% inhibition of bacterial growth
Method: as §2, §3, §4

IMP-1 = IMP-1 (Serratia marcescens, UniProt P52699); test: biochemical; details: CCF2-FA fluorescence assay, 2 hours at 25° C.; read-out: IMP1 IC50
IMP-1, sequence (P52699 whole entry, looked up, species assumed): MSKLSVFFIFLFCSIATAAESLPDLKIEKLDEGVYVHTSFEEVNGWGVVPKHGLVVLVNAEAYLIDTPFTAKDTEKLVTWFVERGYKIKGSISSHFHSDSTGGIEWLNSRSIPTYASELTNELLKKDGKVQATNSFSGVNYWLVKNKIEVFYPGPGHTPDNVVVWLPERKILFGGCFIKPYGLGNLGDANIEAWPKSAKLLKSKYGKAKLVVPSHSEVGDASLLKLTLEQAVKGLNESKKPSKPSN
Method: as §1

VIM-1 = VIM-1 (Pseudomonas aeruginosa (strain ATCC 15692 / DSM 22644 / CIP 104116 / JCM 14847 / LMG 12228 / 1C / PRS 101 / PAO1), UniProt A0A0F7KYQ8); test: biochemical; details: CCF2-FA fluorescence assay, 2 hours at 25° C.; read-out: VIM1 IC50
Method: as §1

[4] = system: P. aeruginosa MB9799 (efflux-, IMP-1 plasmid); type: cell-based, Pseudomonas aeruginosa; details: efflux − (MB9799) strain; imipenem at 2 μg/mL; in the presence of a class A, C, D serine β-lactamase inhibitor closely related to relebactam
Description: (§5) The strain background is Pseudomonas aeruginosa PAO1. A wild-type (M135919) and an isogenic strain in which multiple efflux pumps have been disrupted genetically were used. The MBL IMP-1, obtained from a clinical isolate was introduced into the strain pair by the following process:
(§6) The plasmid DNA was transformed into parental MB5919 (oprD+, efflux+, inducible AmpC) and MB5890 (oprD+, efflux−, inducible AmpC) isogenic strains by electroporation.
(§7) The strain set was then used as a pair to determine the effect of metallo-β-lactamase inhibitors of Formula I on the MIC of imipenem and/or ceftazidime. A fixed concentration of antibiotic is included in standard microbroth MIC tests, usually at the CLSI breakpoint concentration, A fixed amount of a class A/C beta-lactamase inhibitor is also included to inhibit the resident Pseudomonas AmpC enzyme. A serial titration of the metallo-β-lactamase inhibitor was included and the concentration of metallo-β-lactamase inhibitor which restores susceptibility of the strain to the included antibiotic was recorded. That concentration of metallo-β-lactamase inhibitor was then compared between the two strains to determine the fold difference between the efflux+(MB9798) and efflux−(MI39799) strains, which indicates the extent to which the MBLi is subject to efflux.

[5] = system: P. aeruginosa MB9798 (efflux+, IMP-1 plasmid); details: for MB9798 MITC95 P. aeruginosa uM Efflux WT: efflux + (MB9798) strain, imipenem at 2 μg/mL, in the presence of a class A, C, D serine β-lactamase inhibitor closely related to relebactam; for Efflux ratio: fold difference between efflux+ (MB9798) and efflux− (MB9799) strains
Description: as §5, §6, §7

VIM-2 = VIM-2 (Escherichia coli, UniProt Q5U7L7); test: biochemical; details: CCF2-FA fluorescence assay; read-out: VIM2 IC50

NDM-1, sequence (C7C422 whole entry, looked up, species assumed): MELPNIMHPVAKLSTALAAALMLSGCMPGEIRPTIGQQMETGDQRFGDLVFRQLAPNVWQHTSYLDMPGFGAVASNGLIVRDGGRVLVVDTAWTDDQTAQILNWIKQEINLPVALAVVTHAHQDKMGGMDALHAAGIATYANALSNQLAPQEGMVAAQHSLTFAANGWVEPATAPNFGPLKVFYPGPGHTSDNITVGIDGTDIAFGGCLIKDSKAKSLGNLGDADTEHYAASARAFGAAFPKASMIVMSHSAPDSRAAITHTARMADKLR

Row | Compound | pIC50 (NDM-1) | CLB30016 E. coli MITC95 NDM [1] [µM] | IHMA599644 K. pneumoniae MITC95 VIM [2] [µM] | CL5741 S. marcescens MITC95 IMP [3] [µM] | pIC50 (IMP-1) | pIC50 (VIM-1) | MB9799 MITC95 P. aeruginosa uM Efflux Mutant [4] [µM] | MB9798 MITC95 P. aeruginosa uM Efflux WT [5] [µM] | Efflux ratio [5] | pIC50 (VIM-2)
1 | NS(=O)(=O)c1c(S(=O)(=O)N[C@@H]2CCNC2)ccc(N2CCCNC2=O)c1-c1nn[nH]n1 [Example 153, (R)-4-(2-oxotetrahydropyrimidin-1(2H)-yl)-N1-(pyrrolidin-3-yl)-3-(2H-tetrazol-5-yl)benzene-1,2-disulfonamide] | 9.68 | 0.78 | 3.13 | 1.56 | 8.14 | 9.70 | 1.56 | 3.13 | 2.00 | 8.96
2 | Cl.Cl.NCC1CCN(c2ccc(S(=O)(=O)N[C@@H]3CCNC3)c(S(N)(=O)=O)c2-c2nn[nH]n2)CC1 [Example 135, (R)-4-(4-(aminomethyl)piperidin-1-yl)-N1-(pyrrolidin-3-yl)-3-(2H-tetrazol-5-yl)benzene-1,2-disulfonamide dihydrochloride] | 8.95 | 0.59 | 1.17 | 0.78 | 8.46 | 9.80 | 0.39 | 0.59 | 1.50 | 8.52
3 | NCCOCC1CCN(c2ccc(S(=O)(=O)NC[C@H](O)CN)c(S(N)(=O)=O)c2-c2nn[nH]n2)CC1 [Example 208] | 8.98 | 1.56 | 3.13 | 0.78 | 8.74 | 9.96 | 0.78 | 0.78 | 1.00 | 8.92
4 | NCCN1CCN(c2ccc(S(=O)(=O)N[C@@H]3CCNC3)c(S(N)(=O)=O)c2-c2nnn[nH]2)CC1 [Example 76, 4-[4-(2-aminoethyl)piperazin-1-yl]-N1-[(3R)-pyrrolidin-3-yl]-3-(1H-tetrazol-5-yl)benzene-1,2-disulfonamide] | 8.36 | 1.56 | 3.13 | 3.13 | 7.97 | 8.80 | 1.56 | 1.56 | 1.00 | 7.74
5 | CC1(O)CCN(c2ccc(S(=O)(=O)N[C@@H]3CCNC3)c(S(N)(=O)=O)c2-c2nnn[nH]2)CC1 [Example 71, 4-(4-hydroxy-4-methylpiperidin-1-yl)-N1-[(3R)-pyrrolidin-3-yl]-3-(1H-tetrazol-5-yl)benzene-1,2-disulfonamide] | 9.59 | 3.13 | 6.25 | 3.13 | 9.15 | 9.28 | 1.56 | 1.56 | 1.00 | 8.77
6 | NC[C@@H](O)CNS(=O)(=O)c1ccc(N2CCC(CCn3cccn3)CC2)c(-c2nn[nH]n2)c1S(N)(=O)=O [Example 27, (R)-4-(4-(2-(1H-pyrazol-1-yl)ethyl)piperidin-1-yl)-N^1-(3-amino-2-hydroxypropyl)-3-(2H-tetrazol-5-yl)benzene-1,2-disulfonamide] | 10.15 | 3.13 | 6.25 | 3.13 | 10.30 | 10.22 | 1.56 | 25.00 | 15.99 | 9.74
7 | NCCNS(=O)(=O)c1ccc(N2CCN(CCCO)CC2)c(-c2nnn[nH]2)c1S(N)(=O)=O [Example 41, N1-(2-aminoethyl)-4-(4-(3-hydroxypropyl)piperazin-1-yl)-3-(1H-tetrazol-5-yl)benzene-1,2-disulfonamide] | 8.22 | 0.10 | 1.56 | 0.10 | 8.22 | 7.94 | 0.39 | 1.56 | 4.00 | 7.83
8 | NCC1CCN(c2ccc(S(=O)(=O)N[C@@H]3CCNC3)c(S(N)(=O)=O)c2-c2nn[nH]n2)C(=O)C1 (some centres unmarked) [Example 149] | 8.35 | 0.20 | 1.56 | 1.56 | 6.98 | 9.02 | 3.13 | 6.25 | 2.00 | 7.32
9 | NC[C@@H](O)CNS(=O)(=O)c1ccc(N2CC[C@H](CN)C2)c(-c2nn[nH]n2)c1S(N)(=O)=O [Example 124, N1-((R)-3-amino-2-hydroxypropyl)-4-((R)-3-(aminomethyl)pyrrolidin-1-yl)-3-(2H-tetrazol-5-yl)benzene-1,2-disulfonamide] | – | 0.39 | 0.78 | 0.78 | 7.64 | 8.50 | 1.56 | 3.13 | 2.00 | 7.43
10 | NCC1CCN(c2ccc(S(=O)(=O)N[C@@H]3CCNC3)c(S(N)(=O)=O)c2-c2nn[nH]n2)CCN1 (some centres unmarked) [Example 163] | – | 0.39 | 1.56 | 1.56 | 7.31 | 9.13 | 3.13 | 6.25 | 2.00 | 7.28
